The numbers were not newly measured in US20100151008A1, “Preparations and Methods for Textile and or Fiber Surface Finishing, Surface Finished Articles Prepared Thereby, and Uses Therefor” (Cognis IP Management GmbH, priority 2003, published 2010), which cites them from elsewhere.

For `CC(C)CCC[C@@H](C)[C@H]1CC[C@H]2[C@@H]3CC=C4C[C@@H](O)CC[C@]4(C)[C@H]3CC[C@]12C` [cholesterol, 5-cholesten-3b-ol], where the note is “alcohol”, the solubility in alcohol result is recorded as “only sparingly when cold, but more readily after heating”. The “solubility in ether, benzene and petroleum ether” value (ether, benzene and petroleum ether) is recorded as “soluble”. Besides, the solubility in water entry (water) is reported as “virtually insoluble”.
